Reference: article PMC9437101, “Curcumin-based-fluorescent probes targeting ALDH1A3 as a promising tool for glioblastoma precision surgery and early diagnosis” (Communications Biology, 2022)
Several values for one entry are separate records, joined by “and”; a condition that tells them apart may be missing. Identical values can stand only once. Blank lines part the entries; values can stand above or below the molecule they belong to.

Legend:
[1] = LC-HRMS analysis, enzymatic assay buffer + probe without enzyme; conditions: 1 h
Description: These analyses were carried out by using UPLC-HRMS procedure with Vanquish UPLC system coupled to a Thermo Scientific Q-Exactive Plus, operating in negative electrospray ionization mode. The chromatographic separation was carried out using a Phenomenex Synergi 4 µ Polar-RP 80 A (150 × 2 mm) equipped with a Phenomenex Polar-RP (4 mm × 2 mm) security guard column. The mobile phase consisted of A: acetonitrile 0.1% formic acid and B: 0.1% formic acid. We used a linear elution gradient, starting from 80% of A to 5% A in 3 min, 3 min at 5% A, an equilibration of 4 min for a total run time of 10.00 min, at 300 µl/min flow rate. The autosampler temperature was set at 15 °C, the injection volume was 5 µl and column was maintained at 40 °C. […] Before injecting the samples, the blanks in the list were analyzed and every biological sample was analyzed in duplicate. The biological samples analyzed were as follow: (1) Enzymatic assay Buffer; (2) Enzymatic assay Buffer + NAD^+; (3) Enzymatic assay Buffer + Probe 10 or Probe 11; (4) Enzymatic assay Buffer + ALDH1A1; (5) Enzymatic assay Buffer + ALDH1A2; (6) Enzymatic assay Buffer + ALDH1A3; (7) Enzymatic assay Buffer + ALDH1A1 + Probe 10 or Probe 11; (8) Enzymatic assay Buffer + ALDH1A2 + Probe 10 or Probe 11; (9) Enzymatic assay Buffer + ALDH1A3 + Probe 10 or Probe 11. […]

[2] = molecular target: T1, ALDH1A2 (Homo sapiens, UniProt O94788); experiment: LC-HRMS analysis of isoenzyme activity in presence of probe; format: biochemical; conditions: ALDH1A2, 1 h
T1 construct: E. coli BL21 (DE3) were transformed with the full-length expression vector of each isoform; His-tag; made in house; host or cells: E. coli BL21 (DE3)
T1 sequence (O94788 1-518): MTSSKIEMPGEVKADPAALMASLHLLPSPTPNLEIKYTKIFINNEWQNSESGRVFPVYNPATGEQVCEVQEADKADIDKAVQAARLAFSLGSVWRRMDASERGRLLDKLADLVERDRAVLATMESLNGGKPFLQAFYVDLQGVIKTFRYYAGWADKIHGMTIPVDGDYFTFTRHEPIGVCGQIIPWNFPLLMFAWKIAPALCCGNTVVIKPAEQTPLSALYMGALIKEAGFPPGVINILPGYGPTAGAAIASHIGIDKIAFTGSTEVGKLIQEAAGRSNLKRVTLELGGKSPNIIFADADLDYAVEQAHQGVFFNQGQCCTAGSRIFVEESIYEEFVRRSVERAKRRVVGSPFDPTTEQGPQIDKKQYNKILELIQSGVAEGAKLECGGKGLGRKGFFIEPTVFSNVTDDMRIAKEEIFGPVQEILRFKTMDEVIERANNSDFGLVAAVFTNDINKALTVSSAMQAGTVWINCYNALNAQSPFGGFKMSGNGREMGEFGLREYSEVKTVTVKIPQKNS
Description: (§1) These analyses were carried out by using UPLC-HRMS procedure with Vanquish UPLC system coupled to a Thermo Scientific Q-Exactive Plus, operating in negative electrospray ionization mode. The chromatographic separation was carried out using a Phenomenex Synergi 4 µ Polar-RP 80 A (150 × 2 mm) equipped with a Phenomenex Polar-RP (4 mm × 2 mm) security guard column. The mobile phase consisted of A: acetonitrile 0.1% formic acid and B: 0.1% formic acid. We used a linear elution gradient, starting from 80% of A to 5% A in 3 min, 3 min at 5% A, an equilibration of 4 min for a total run time of 10.00 min, at 300 µl/min flow rate. The autosampler temperature was set at 15 °C, the injection volume was 5 µl and column was maintained at 40 °C. The heated electrospray ionization source was used, with a spray voltage of […], with a capillary temperature of 300 °C, a heater temperature of 350 °C, a sheat gas flow of 45 arbitrary units (AU), an auxiliary gas flow of 10 AU and a sweep gas flow of 0 AU. During the Parallel Reaction Monitoring acquisition in negative ion mode, the instrument operated at 17,500 resolution in presence of the inclusion list (m/z = 596.20384 and m/z = 612.19875 for Probe 10 and Probe 10-COOH respectively; m/z = 534.18819 and m/z = 506.156888 for Probe 11 and Probe 11-COOH respectively) with an automatic gain control target of 2 × 10^5 charges and a maximum injection time of 100 ms. Before injecting the samples, the blanks in the list were analyzed and every biological sample was analyzed in duplicate. The biological samples analyzed were as follow: (1) Enzymatic assay Buffer; (2) Enzymatic assay Buffer + NAD^+; (3) Enzymatic assay Buffer + Probe 10 or Probe 11; (4) Enzymatic assay Buffer + ALDH1A1; (5) Enzymatic assay Buffer + ALDH1A2; (6) Enzymatic assay Buffer + ALDH1A3; (7) Enzymatic assay Buffer + ALDH1A1 + Probe 10 or Probe 11; (8) Enzymatic assay Buffer + ALDH1A2 + Probe 10 or Probe 11; (9) Enzymatic assay Buffer + ALDH1A3 + Probe 10 or Probe 11. All samples were diluted 1:1 with ACN, then 1:100 in ACN-Water 1:1 prior the LC-HRMS analysis.

[3] = molecular target: T2, ALDH1A1 (Homo sapiens, UniProt P00352); experiment: as above; format: biochemical; conditions: ALDH1A1, 1 h
T2 construct: E. coli BL21 (DE3) were transformed with the full-length expression vector of each isoform; His-tag; made in house; host or cells: E. coli BL21 (DE3)
T2 sequence (P00352 1-501): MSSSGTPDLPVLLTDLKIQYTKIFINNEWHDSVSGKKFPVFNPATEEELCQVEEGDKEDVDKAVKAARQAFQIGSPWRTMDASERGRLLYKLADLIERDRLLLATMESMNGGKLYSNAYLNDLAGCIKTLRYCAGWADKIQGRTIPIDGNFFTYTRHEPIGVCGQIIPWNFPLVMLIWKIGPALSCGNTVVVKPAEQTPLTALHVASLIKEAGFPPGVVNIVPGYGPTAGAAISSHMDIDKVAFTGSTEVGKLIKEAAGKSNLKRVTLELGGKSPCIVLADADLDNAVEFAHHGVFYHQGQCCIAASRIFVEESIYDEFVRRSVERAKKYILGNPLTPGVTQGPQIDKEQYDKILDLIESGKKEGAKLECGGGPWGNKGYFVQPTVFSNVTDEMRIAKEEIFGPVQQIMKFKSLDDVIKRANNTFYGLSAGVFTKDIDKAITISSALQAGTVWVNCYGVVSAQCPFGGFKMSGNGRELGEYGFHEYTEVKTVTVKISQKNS
Description: as §1

[4] = substrate: COc1cc(/C=C/C(O)=C/C(=O)/C=C/c2ccc(OCc3cn(CCOc4ccc(C=O)cc4)nn3)c(OC)c2)ccc1O; experiment: KM evaluation, probe as substrate (NADH absorbance 340 nm); format: biochemical, human; conditions: other: probe as substrate; pH 8.0; 25.0 °C
Description: The catalytic activity of the ALDH1As isoenzymes in complex with probe 10 was tested on a Tecan Sunrise 96 Multiplate Reader with Greiner Bio-One 96-UV-Transparent Microplates. […] Each reaction mix was preincubated for 10 min at 25 °C before the analysis. The catalytic activity was measured by monitoring the absorbance at 340 nm (εNADH = 6220 M^−1 cm^−1) for 12 h at 25 °C and the inhibitory parameters were calculated by processing the raw data on GraphPad.

- AREA TIC of Probe 10-COOH formed from Probe 10 [1]: 0
Molecule: COc1cc(/C=C/C(O)=C/C(=O)/C=C/c2ccc(OCc3cn(CCOc4ccc(C(=O)O)cc4)nn3)c(OC)c2)ccc1O [Probe 10-COOH]
- AREA TIC of Probe 10-COOH formed from Probe 10 [2]: 18647884 and 19590595 and 21767211 and 22597746
- AREA TIC of Probe 10-COOH formed from Probe 10 [3]: 26353656 and 30637066 and 18030552 and 17027138

B1: ALDH1A1 (Homo sapiens) (protein)
chain: T2 sequence (P00352 1-501)
notes: E. coli BL21 (DE3) were transformed with the full-length expression vector of each isoform; His-tag; made in house; host or cells: E. coli BL21 (DE3)
- Km [4]: 255.2 µM

B2: ALDH1A2 (Homo sapiens) (protein)
chain: T1 sequence (O94788 1-518)
notes: as for B1
- Km [4]: 220.0 µM
